# System: AMPK
# Test: AMPK enzyme activity assay (Delfia technology, AMARA peptide substrate)
# Type: biochemical
# Settings: compound at 30 μM vs AMP at 200 μM
# Summary of the method: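 Value is the ratio of compound (30 μM) to AMP (200 μM) response, each as % of basal control. Phosphorylation of the AMARA peptide after AMPK addition was read by Delfia with an anti-phosphoserine antibody.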
row,Activity: Ratio between the % of control (basal activity) of compound of formula (1) at 30 μM and the % of control (basal activity) of AMP (natural substrate) at 200 μM,SMILES
1,C (C≧75%),"Cc1cccc(C2(F)C(=O)Nc3sc(Cl)c(-c4ccc(F)cc4O)c3C2=O)c1 (centres unmarked) [No 184, 2-chloro-5-fluoro-3-(4-fluoro-2-hydroxy-phenyl)-5-(m-tolyl)-7H-thieno[2,3-b]pyridine-4,6-dione]"
2,C (C≧75%),"Cc1c(F)ccc(-c2c(Cl)sc3c2C(=O)C(F)(c2ccccc2)C(=O)N3)c1O (centres unmarked) [No 185, 2-chloro-5-fluoro-3-(4-fluoro-2-hydroxy-3-methyl-phenyl)-5-phenyl-7H-thieno[2,3-b]pyridine-4,6-dione]"
3,C (C≧75%),"Cc1cccc(C2(F)C(=O)Nc3sc(Cl)c(-c4ccc(C)c(C)c4)c3C2=O)c1 (centres unmarked) [No 186, 2-chloro-3-(3,4-dimethylphenyl)-5-fluoro-5-(m-tolyl)-7H-thieno[2,3-b]pyridine-4,6-dione]"
4,C (C≧75%),"Cc1ccc(-c2c(Cl)sc3c2C(=O)C(F)(c2cccnc2)C(=O)N3)cc1C (centres unmarked) [No 187, 2-chloro-3-(3,4-dimethylphenyl)-5-fluoro-5-(3-pyridyl)-7H-thieno[2,3-b]pyridine-4,6-dione]"
5,A (0%<A<50%),"O=C1Nc2scc(-c3ccc(Br)cc3)c2C(=O)C1(F)c1ccccn1 (centres unmarked) [No 188, 3-(4-bromophenyl)-5-fluoro-5-(2-pyridyl)-7H-thieno[2,3-b]pyridine-4,6-dione]"
6,A (0%<A<50%),"O=C1Nc2scc(-c3ccc(F)cc3)c2C(=O)C1(F)c1ccccc1 (centres unmarked) [No 189, 5-fluoro-3-(4-fluorophenyl)-5-phenyl-7H-thieno[2,3-b]pyridine-4,6-dione]"
7,B (50%≦B<75%),"O=C1Nc2scc(-c3cccc(F)c3)c2C(=O)C1(F)c1ccccc1 (centres unmarked) [No 190, 5-fluoro-3-(3-fluorophenyl)-5-phenyl-7H-thieno[2,3-b]pyridine-4,6-dione]"
8,C (C≧75%),"Cc1ccc(-c2c(Cl)sc3c2C(=O)C(F)(c2ccccc2)C(=O)N3)c(O)c1F (centres unmarked) [No 191, 2-chloro-5-fluoro-3-(3-fluoro-2-hydroxy-4-methyl-phenyl)-5-phenyl-7H-thieno[2,3-b]pyridine-4,6-dione]"
9,C (C≧75%),"Cc1ccc(-c2c(C)sc3c2C(=O)C(F)(c2ccccc2)C(=O)N3)c(O)c1F (centres unmarked) [No 192, 5-fluoro-3-(3-fluoro-2-hydroxy-4-methyl-phenyl)-2-methyl-5-phenyl-7H-thieno[2,3-b]pyridine-4,6-dione]"
10,A (0%<A<50%),"O=C1Nc2scc(-c3cnccn3)c2C(=O)C1(F)c1ccccc1 (centres unmarked) [No 193, 5-fluoro-5-phenyl-3-pyrazin-2-yl-7H-thieno[2,3-b]pyridine-4,6-dione]"
11,C (C≧75%),"O=C1Nc2scc(-c3ccc(O)c(F)c3)c2C(=O)C1(F)c1ccccc1 (centres unmarked) [No 194, 5-fluoro-3-(3-fluoro-4-hydroxy-phenyl)-5-phenyl-7H-thieno[2,3-b]pyridine-4,6-dione]"
12,C (C≧75%),"COc1ccc(-c2c(F)sc3c2C(=O)C(F)(c2ccccc2)C(=O)N3)cc1F (centres unmarked) [No 195, 2,5-difluoro-3-(3-fluoro-4-methoxy-phenyl)-5-phenyl-7H-thieno[2,3-b]pyridine-4,6-dione]"
13,A (0%<A<50%),"O=C(O)c1cccc(-c2csc3c2C(=O)C(F)(c2ccccc2)C(=O)N3)c1 (centres unmarked) [No 196, 3-(5-fluoro-4,6-dioxo-5-phenyl-7H-thieno[2,3-b]pyridin-3-yl)benzoic acid]"
14,A (0%<A<50%),"O=C(O)c1cccc(-c2c(F)sc3c2C(=O)C(F)(c2ccccc2)C(=O)N3)c1 (centres unmarked) [No 197, 3-(2,5-difluoro-4,6-dioxo-5-phenyl-7H-thieno[2,3-b]pyridin-3-yl)benzoic acid]"
15,A (0%<A<50%),"O=C(O)c1ccc(-c2csc3c2C(=O)C(F)(c2ccccc2)C(=O)N3)cc1 (centres unmarked) [No 198, 4-(5-fluoro-4,6-dioxo-5-phenyl-7H-thieno[2,3-b]pyridin-3-yl)benzoic acid]"
16,B (50%≦B<75%),"COc1ccc(-c2csc3c2C(=O)C(F)(c2ccc(F)cc2)C(=O)N3)cc1 (centres unmarked) [No 199, 5-fluoro-5-(4-fluorophenyl)-3-(4-methoxyphenyl)-7H-thieno[2,3-b]pyridine-4,6-dione]"

row,Activity: Ratio between the % of control (basal activity) of compound of formula (1) at 30 μM and the % of control (basal activity) of AMP (natural substrate) at 200 μM,SMILES
1,B (50%≦B<75%),"COc1ccc(-c2c(F)sc3c2C(=O)C(F)(c2ccc(F)cc2)C(=O)N3)cc1 (centres unmarked) [No 200, 2,5-difluoro-5-(4-fluorophenyl)-3-(4-methoxyphenyl)-7H-thieno[2,3-b]pyridine-4,6-dione]"
2,B (50%≦B<75%),"COc1ccc(-c2csc3c2C(=O)C(F)(c2ccccc2)C(=O)N3)cc1 (centres unmarked) [No 201, 5-fluoro-3-(4-methoxyphenyl)-5-phenyl-7H-thieno[2,3-b]pyridine-4,6-dione]"
3,B (50%≦B<75%),"COc1ccc(-c2c(F)sc3c2C(=O)C(F)(c2ccccc2)C(=O)N3)cc1 (centres unmarked) [No 202, 2,5-difluoro-3-(4-methoxyphenyl)-5-phenyl-7H-thieno[2,3-b]pyridine-4,6-dione]"
4,C (C≧75%),"O=C1Nc2scc(-c3ccc(O)cc3)c2C(=O)C1(F)c1ccccc1 (centres unmarked) [No 203, 5-fluoro-3-(4-hydroxyphenyl)-5-phenyl-7H-thieno[2,3-b]pyridine-4,6-dione]"
5,C (C≧75%),"O=C1Nc2scc(-c3cccc(O)c3)c2C(=O)C1(F)c1ccccc1 (centres unmarked) [No 204, 5-fluoro-3-(3-hydroxyphenyl)-5-phenyl-7H-thieno[2,3-b]pyridine-4,6-dione]"
6,B (50%≦B<75%),"COc1cccc(-c2csc3c2C(=O)C(F)(c2ccccc2)C(=O)N3)c1 (centres unmarked) [No 205, 5-fluoro-3-(3-methoxyphenyl)-5-phenyl-7H-thieno[2,3-b]pyridine-4,6-dione]"
7,C (C≧75%),"COc1cccc(-c2c(F)sc3c2C(=O)C(F)(c2ccccc2)C(=O)N3)c1 (centres unmarked) [No 206, 2,5-difluoro-3-(3-methoxyphenyl)-5-phenyl-7H-thieno[2,3-b]pyridine-4,6-dione]"
8,A (0%<A<50%),"COc1ccccc1C1(F)C(=O)Nc2scc(-c3ccccc3)c2C1=O (centres unmarked) [No 207, 5-fluoro-5-(2-methoxyphenyl)-3-phenyl-7H-thieno[2,3-b]pyridine-4,6-dione]"
9,A (0%<A<50%),"O=C1Nc2scc(-c3ccncc3)c2C(=O)C1(F)c1ccccc1 (centres unmarked) [No 208, 5-fluoro-5-phenyl-3-(4-pyridyl)-7H-thieno[2,3-b]pyridine-4,6-dione]"
10,C (C≧75%),"Cc1cccc(C2(F)C(=O)Nc3sc(Cl)c(-c4cccc(F)c4)c3C2=O)c1 (centres unmarked) [No 210, 2-chloro-5-fluoro-3-(3-fluorophenyl)-5-(m-tolyl)-7H-thieno[2,3-b]pyridine-4,6-dione]"
11,C (C≧75%),"N#Cc1cccc(C2(F)C(=O)Nc3sc(Cl)c(-c4cccc(F)c4)c3C2=O)c1 (centres unmarked) [No 211, 3-[2-chloro-5-fluoro-3-(3-fluorophenyl)-4,6-dioxo-7H-thieno[2,3-b]pyridin-5-yl]benzonitrile]"
12,C (C≧75%),"O=C1Nc2sc(Cl)c(-c3cccc(F)c3)c2C(=O)C1(F)c1cccnc1 (centres unmarked) [No 212, 2-chloro-5-fluoro-3-(3-fluorophenyl)-5-(3-pyridyl)-7H-thieno[2,3-b]pyridine-4,6-dione]"
13,C (C≧75%),"Cc1cccc(-c2c(Cl)sc3c2C(=O)C(F)(c2ccccc2)C(=O)N3)c1O (centres unmarked) [No 213, 2-chloro-5-fluoro-3-(2-hydroxy-3-methyl-phenyl)-5-phenyl-7H-thieno[2,3-b]pyridine-4,6-dione]"
14,A (0%<A<50%),"O=C1Nc2scc(-c3cccnc3)c2C(=O)C1(F)c1ccccc1 (centres unmarked) [No 214, 5-fluoro-5-phenyl-3-(3-pyridyl)-7H-thieno[2,3-b]pyridine-4,6-dione]"
15,C (C≧75%),"O=C1Nc2sc(Cl)c(-c3ccc(F)cc3O)c2C(=O)C1(F)c1cccc(F)c1 (centres unmarked) [No 215, 2-chloro-5-fluoro-3-(4-fluoro-2-hydroxy-phenyl)-5-(3-fluorophenyl)-7H-thieno[2,3-b]pyridine-4,6-dione]"
16,C (C≧75%),"O=C1Nc2sc(Cl)c(-c3ccc(F)cc3O)c2C(=O)C1(Cl)c1ccccc1 (centres unmarked) [No 216, 2,5-dichloro-3-(4-fluoro-2-hydroxy-phenyl)-5-phenyl-7H-thieno[2,3-b]pyridine-4,6-dione]"

# Reference: patent US9365584B2, “Thieno [2,3-B] pyridinedione activators of AMPK and therapeutic uses thereof” (Poxel, priority 2009, dated 2016)
